This is an account of results in BindingDB's records for patent US20230312550 (Astrazeneca, 2023).

Experiment [1] has as its target T1, Prolyl endopeptidase FAP (Homo sapiens, UniProt Q12884).
T1 sequence (Q12884 whole entry): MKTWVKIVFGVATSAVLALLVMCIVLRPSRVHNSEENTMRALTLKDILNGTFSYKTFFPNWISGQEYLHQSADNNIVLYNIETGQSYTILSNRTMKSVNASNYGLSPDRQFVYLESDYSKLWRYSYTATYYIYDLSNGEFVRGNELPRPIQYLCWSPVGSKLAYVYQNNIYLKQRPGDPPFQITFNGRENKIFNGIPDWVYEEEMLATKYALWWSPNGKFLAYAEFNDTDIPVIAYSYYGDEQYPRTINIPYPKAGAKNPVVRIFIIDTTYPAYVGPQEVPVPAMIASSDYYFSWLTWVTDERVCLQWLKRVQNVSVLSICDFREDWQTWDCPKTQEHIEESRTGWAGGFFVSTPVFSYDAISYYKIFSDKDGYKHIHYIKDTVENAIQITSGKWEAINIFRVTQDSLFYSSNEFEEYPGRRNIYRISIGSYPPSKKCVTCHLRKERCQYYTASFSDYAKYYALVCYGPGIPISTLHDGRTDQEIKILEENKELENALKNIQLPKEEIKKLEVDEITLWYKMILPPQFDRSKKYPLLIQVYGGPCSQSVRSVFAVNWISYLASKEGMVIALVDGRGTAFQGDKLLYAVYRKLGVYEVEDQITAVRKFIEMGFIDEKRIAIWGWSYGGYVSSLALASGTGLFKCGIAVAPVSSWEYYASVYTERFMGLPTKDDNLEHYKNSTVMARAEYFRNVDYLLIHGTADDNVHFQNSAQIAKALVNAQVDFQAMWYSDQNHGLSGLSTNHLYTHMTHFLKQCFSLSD
Put plainly: hFAP Binding Assay. Particulars: for kon: read-out: kon (M-1-s-1).
Method: Table 1: Compounds were tested in a direct binding assay using 8K surface plasmon resonance biosensor (GE Healthcare) at 20° C. Immobilization of hFAP (M39-A757) on a CMD200M sensor chip (Xantec) was performed using standard amine coupling procedure in immobilization buffer (10 mM HEPES, 150 mM NaCl, 0.05% Tween20, pH 7.4). The surface was washed with 10 mM NaOH, 1M NaCl before being activated with EDC/NHS (GE Healthcare), followed by immobilization of hFAP (in 10 mM Acetate pH 5.0). Finally, the surface was deactivated by ethanolamine. Immobilization levels of hFAP were around 4000-6000 RU. The reference spot was treated as described, omitting the injection of hFAP. Compound concentration series were injected over the immobilized protein in increasing concentrations (2-500 nM) using single cycle kinetics in running buffer (20 mM TRIS, 150 mM NaCl, 0.05% Tween20, 1% DMSO, pH 7.4).

The target of experiment [2] is Dipeptidyl peptidase 2 (Homo sapiens, UniProt Q9UHL4). Put plainly: hDPP7 Inhibition Assay. On the procedure: Table 4: Compounds were tested in a biochemical inhibition assay using human dipeptidylpeptidase 7 (hDPP7) enzyme at 15 nM FAC (BPS Bioscience, #80070) and the substrate Ala-Pro-amino-methylcoumarin (BPS Bioscience, #80305) at 5 μM FAC. The enzymatic reactions were conducted in duplicate at rt for 30 min in 50 μL DPP assay buffer (BPS Bioscience, #80300). Compound solutions (in DMSO) at 10 CR, 3 fold dilution series were prepared in assay buffer ten-fold higher than the final concentration, and 5 μL of the dilution was added to a 50 μL reaction so that the highest compound concentration was 100 μM FAC and the concentration of DMSO was 1% in all wells. The plates were read on a Tecan Infinite M1000 microplate reader with excitation 340 nm and emission 460 nm. Data were analyzed in Graph Pad Prism. IC50 values were determined by plotting % inhibition versus log compound concentration and using a one site dose response model. Raw data signals were normalized using 1% DMSO as 0% control and no enzyme as 100% inhibitor control.

Structures are written as SMILES. A value given as a limit tells only on which side of the number the result lay.

What is called koff is a measure of how fast the partners let go of each other. In general, kon refers to a measure of how fast the partners come together. Take `Cc1ncccc1-c1ccc2nccc(C(=O)NCC(=O)N3CSC[C@H]3C#N)c2c1` [US20230312550, Example 128]: in experiment [1], the koff came to 0.00066 s⁻¹ and the kon turned out to be 5.4e+06 M⁻¹ s⁻¹. With `CC(C)OC1CCN(c2ccc3nccc(C(=O)NCC(=O)N4CSC[C@H]4C#N)c3c2)CC1` [US20230312550, Example 43], in experiment [1], the koff was 1.9e-05 s⁻¹ and the kon came out at 3.2e+06 M⁻¹ s⁻¹.

For the molecule `N#C[C@@H]1CSCN1C(=O)CNC(=O)c1ccnc2ccc(N3CC(CC(F)(F)F)C3)cc12` [US20230312550, Example 158], in experiment [1], the koff stood at 0.00029 s⁻¹ and the kon came to 3.1e+06 M⁻¹ s⁻¹. In the case of `C[C@H]1N(c2ccc3nccc(C(=O)NCC(=O)N4CSC[C@H]4C#N)c3c2)CC1(F)F` [US20230312550, Example 159], in experiment [1], the koff is 9.2e-05 s⁻¹ and the association rate constant (kon) is 2.1e+06 M⁻¹ s⁻¹. On to `C[C@H]1COC[C@H](C)N1c1ccc2nccc(C(=O)NCC(=O)N3CSC[C@H]3C#N)c2c1` [US20230312550, Example 103], for which, in experiment [1], the koff turned out to be 0.0001 s⁻¹ and the association rate constant (kon) was determined as 3e+06 M⁻¹ s⁻¹. As for `N#C[C@@H]1CSCN1C(=O)CNC(=O)c1ccnc2ccc(-c3cncnc3)cc12` [US20230312550, Example 127], in experiment [1], the koff was determined as 0.002 s⁻¹ and the kon turned out to be 6e+06 M⁻¹ s⁻¹. In the same order, the values of `CC1(CC(F)F)CN(c2ccc3nccc(C(=O)NCC(=O)N4CSC[C@H]4C#N)c3c2)C1` [US20230312550, Example 133] are 7.3e-05 s⁻¹ and 1.2e+06 M⁻¹ s⁻¹. In the same order, the values of `N#C[C@@H]1CSCN1C(=O)CNC(=O)c1ccnc2ccc(N3CCO[C@H](C(F)(F)F)C3)cc12` [US20230312550, Example 74] are 0.00016 s⁻¹ and 1.1e+06 M⁻¹ s⁻¹. In the same order, the values of `N#C[C@@H]1CSCN1C(=O)CNC(=O)c1ccnc2ccc(N3CC4(COC4)C3)cc12` [US20230312550, Example 166] are 4.9e-05 s⁻¹ and 2.2e+06 M⁻¹ s⁻¹.

On to `N#C[C@@H]1CSCN1C(=O)CNC(=O)c1ccnc2ccc(N3CCCCO3)cc12` [US20230312550, Example 1], for which, in experiment [1], the koff was found to be 0.00014 s⁻¹ and the kon was determined as 730000 M⁻¹ s⁻¹. Taken in the same sequence, the figures for `N#C[C@@H]1CSCN1C(=O)CNC(=O)c1ccnc2ccc(N3CC[C@@H](F)C3)cc12` [US20230312550, Example 52] were 0.00019 s⁻¹ and 6.8e+06 M⁻¹ s⁻¹.

In the case of `N#C[C@@H]1CSCN1C(=O)CNC(=O)c1ccnc2ccc(N3CC4(CC(F)C4)C3)cc12` [US20230312550, Example 155], in experiment [1], the off-rate constant (koff) worked out at 5e-05 s⁻¹ and the on-rate constant (kon) is 3.1e+06 M⁻¹ s⁻¹.

As for `N#C[C@@H]1CSCN1C(=O)CNC(=O)c1ccnc2ccc(-n3ccc4c(F)cc(F)cc43)cc12` [US20230312550, Example 119], in experiment [1], the koff worked out at 0.00031 s⁻¹ and the association rate constant (kon) was 610000 M⁻¹ s⁻¹. Taken in the same sequence, the figures for `CC1(F)CCN(c2ccc3nccc(C(=O)NCC(=O)N4CSC[C@H]4C#N)c3c2)CC1` [US20230312550, Example 34] were 8.2e-05 s⁻¹ and 2.2e+06 M⁻¹ s⁻¹. For the molecule `COc1ccc(-c2ccc3nccc(C(=O)NCC(=O)N4CSC[C@H]4C#N)c3c2)cn1` [US20230312550, Example 178], in experiment [1], the koff was determined as 0.00017 s⁻¹ and the kon was 3.1e+06 M⁻¹ s⁻¹.

In the case of `N#C[C@@H]1CSCN1C(=O)CNC(=O)c1ccnc2ccc(N3C4CCC3COC4)cc12` [US20230312550, Example 98], in experiment [1], the koff is 1.5e-05 s⁻¹ and the on-rate constant (kon) worked out at 1.6e+06 M⁻¹ s⁻¹. Consider `N#C[C@@H]1CSCN1C(=O)CNC(=O)c1c(F)cnc2ccc(N3CCOCC3)cc12` [US20230312550, Example 2], for which, in experiment [1], the koff is 0.0038 s⁻¹ and the kon came out at 410000 M⁻¹ s⁻¹. Turning to `N#C[C@@H]1CSCN1C(=O)CNC(=O)c1ccnc2ccc(N3CCC4(CCOCC4)CC3)cc12` [US20230312550, Example 162], in experiment [1], the off-rate constant (koff) came out at 2.8e-05 s⁻¹ and the association rate constant (kon) stood at 1.9e+06 M⁻¹ s⁻¹. `N#C[C@@H]1CSCN1C(=O)CNC(=O)c1ccnc2ccc(N3C[C@@H]4[C@H](C3)[C@H]4C(F)(F)F)cc12` [US20230312550, Example 208]: in experiment [1], the koff was 0.00026 s⁻¹ and the association rate constant (kon) is 5.6e+06 M⁻¹ s⁻¹. Turning to `COC1CN(c2ccc3nccc(C(=O)NCC(=O)N4CSC[C@H]4C#N)c3c2)C1` [US20230312550, Example 66], in experiment [1], the koff came to 0.00022 s⁻¹ and the kon came to 2.6e+07 M⁻¹ s⁻¹.

As to `N#C[C@@H]1CSCN1C(=O)CNC(=O)c1ccnc2ccc(-c3ccnn3[C@H]3CCCCO3)cc12` [US20230312550, Example 176], in experiment [1], the koff turned out to be 0.00022 s⁻¹ and the kon came to 120000 M⁻¹ s⁻¹. In the same order, the values of `N#C[C@@H]1CSCN1C(=O)CNC(=O)c1ccnc2ccc(-c3cccnc3)cc12` [US20230312550, Example 126] are 0.00021 s⁻¹ and 1.8e+06 M⁻¹ s⁻¹.

For `N#C[C@@H]1CSCN1C(=O)CNC(=O)c1ccnc2ccc(N3CCCC4(CC4)C3)cc12` [US20230312550, Example 46], in experiment [1], the off-rate (koff) worked out at 6.2e-05 s⁻¹ and the kon is 3e+06 M⁻¹ s⁻¹. As for `CN1CCC(F)(c2ccc3nccc(C(=O)NCC(=O)N4CSC[C@H]4C#N)c3c2)CC1` [US20230312550, Example 195], in experiment [1], the koff came to 6.1e-05 s⁻¹ and the kon is 190000 M⁻¹ s⁻¹.

As for `C[C@H]1CCN(c2ccc3nccc(C(=O)NCC(=O)N4CSC[C@H]4C#N)c3c2)C1=O` (single isomer, unassigned) [US20230312550, Example 201], in experiment [1], the koff was 0.0001 s⁻¹ and the kon was found to be 1.8e+06 M⁻¹ s⁻¹.

As to `N#C[C@@H]1CSCN1C(=O)CNC(=O)c1ccnc2ccc(N3CCC[C@@H]3C3CC3)cc12` [US20230312550, Example 199], in experiment [1], the koff came to 0.00026 s⁻¹ and the kon was 2.3e+06 M⁻¹ s⁻¹.

Turning to `CC1(C)CCN(c2ccc3nccc(C(=O)NCC(=O)N4CSC[C@H]4C#N)c3c2)C1` [US20230312550, Example 48], in experiment [1], the koff is 8.9e-05 s⁻¹ and the kon was 1.4e+06 M⁻¹ s⁻¹. In the case of `N#C[C@@H]1CSCN1C(=O)CNC(=O)c1ccnc2ccc(N3CCOC[C@@H]3C(F)(F)F)cc12` [US20230312550, Example 85], in experiment [1], the koff amounted to 0.00011 s⁻¹ and the “koff (s-1)” value is 0.00011 s⁻¹. For orientation: IC50 means the point on the concentration scale where inhibition reaches its midpoint. A high value points to a need for much substance. Consider `Cc1cc(N2CCOCC2)cc2c(C(=O)NCC(=O)N3CSC[C@H]3C#N)ccnc12` [US20230312550, Example 9], for which the IC50 in experiment [2] was more than 100 µM. For `N#C[C@@H]1CSCN1C(=O)CNC(=O)c1ccnc2ccc(N3CC(F)C3)cc12` [US20230312550, Example 21], in experiment [1], the koff was found to be 0.0002 s⁻¹ and the kon is 3e+06 M⁻¹ s⁻¹.

For `N#C[C@@H]1CSCN1C(=O)CNC(=O)c1ccnc2ccc(N3CCO[C@@H](C(F)(F)F)C3)cc12` [US20230312550, Example 73], in experiment [1], the koff turned out to be 0.00016 s⁻¹ and the kon was found to be 2.4e+06 M⁻¹ s⁻¹. Consider `N#C[C@@H]1CSCN1C(=O)CNC(=O)c1ccnc2ccc(-c3ccnc(F)c3)cc12` [US20230312550, Example 124], for which, in experiment [1], the off-rate (koff) turned out to be 0.00028 s⁻¹ and the kon was 3e+06 M⁻¹ s⁻¹.
